{
  "source": "paper PMC6332320",
  "about": "“Factors Influencing Oral Bioavailability of Thai Mango Seed Kernel Extract and Its Key Phenolic Principles” (Molecules, 2015)",
  "key": {"in vitro": {"assay": "in vitro", "assay_type": "in vitro ADME, rat", "conditions": "Sprague-Dawley, pH 6, rat fecal lysates, 24 h; for recovery at 24 h, 100 µg/mL: as principle in MSKE 100 µg/mL, relative to HBSS, read-out: relative recovery after incubation with the fecal lysates", "protocol": "(§1) The rat fecal lysate was prepared according to the method of Niu et al. with slight modifications. Briefly, 3 g of feces was collected from SD rats (8–10 weeks, n = 6) were then washed with ice-cold 0.1 mM potassium phosphate buffer (KPi, 10 mL). After resuspension in ice-cold 0.1 mM KPi (20 mL), the feces were vortexed and sonicated in an ice water bath for 45 min. To obtain the fecal lysate, the mixture was centrifuged at 15,000 rpm at 4 °C for 30 min. The supernatant was collected and maintained at –80 °C until use. The protein concentration in the fecal lysate was determined using a BCA™ protein assay kit.\n(§2) The prepared fecal lysate was thawed and diluted with ice-cold HBSS at pH 6 to obtain a final concentration of 0.5 mg/mL protein for each test. […] The mixtures were then incubated in water bath at 37 °C for 24 h. After samples (200 μL) were collected at each specific time point (0, 1, 2, 8, and 24 h), the reaction was stopped by adding ice-cold methanol (50 μL). The samples were then vortexed and centrifuged at 15,500 rpm for 15 min, and the supernatant was injected into the UPLC for analysis.\n(§3) The chemical and biological stabilities of the phenolic compounds were expressed as the concentration of the analyte at different time points relative to the concentration of the same analyte at time zero multiplied by 100 (% recovery)."}, "rat fecal lysates": {"system": "rat fecal lysates", "assay": "in vitro", "assay_type": "in vitro ADME", "conditions": "for recovery after incubation with inactive fecal lysates and HBSS at pH 6 / recovery after incubation with fecal lysates: as principle in MSKE 100 µg/mL; for recovery after incubation with fecal lysates / stability in inactive rat fecal lysates or HBSS at pH 6: 24 h", "protocol": "as §1, §2, §3"}, "[1]": {"assay": "Caco-2 transepithelial transport experiment", "assay_type": "in vitro ADME, human", "conditions": "human", "protocol": "(§4) The transport experiment using Caco-2 monolayer was performed according to the criteria in our laboratory as previously reported with slight modification. Briefly, the cell monolayers were prepared by seeding 400,000 cells onto a polycarbonate insert, which has a surface area and pore size of 4.2 cm^2 and 3 μm, respectively (Nunc™, Thermo Fisher Scientific, Waltham, MA, USA). Cells were maintained in a humidified atmosphere at 37 °C (90% humidity and 5% CO2) and fed every other day. After 19 to 22 days post-seeding, the cell monolayers were used in the experiments. Before the experiment, the monolayers were quickly washed twice with pre-warmed HBSS at pH 7.4 (37 °C). The integrity of each monolayer was then verified by measuring the transepithelial electrical resistance (TEER) using a Millicell® ERS meter (Millipore, Bedford, MA, USA), and layers with TEER values less than 400 Ω/cm^2 relative to that of the blank insert were discarded. Then, the monolayers were incubated with the HBSS buffer at 37 °C for 1 h, and the incubation buffer was then aspirated. The test compounds were dissolved in HBSS at pH 6 to obtain final concentrations for the individual compounds (20 μM), mixture (20 μM) and MSKE (0.25 mg/mL), which were then loaded onto the A or B side (2.6 mL) as the donor side. A 2.6 mL aliquot of HBSS at pH 6 without the test compounds was loaded into the other side as the receiver side. After incubation at 37 °C, 0.6 mL of sample was collected from the receiver side at indicated times (60, 120, 180 and 240 min), and the same volume of receiver medium was replaced after each sampling. At the end of the experiment, the cells were washed twice with ice-cold HBSS at pH 6. The cells in each well were then collected and resuspended in 600 μL of HBSS at pH 6, and sonicated in an ice water bath at an output of 9 W for 30 min to obtain the cell lysates. The lysate was divided into the following aliquots: (1) 20 μL for quantitative protein assessment using a BCA™ protein assay kit and (2) 580 μL for quantitative test compounds. The samples collected from the transport study were stored at −20 °C until the UPLC or LC–MS/MS analysis. The experiments were performed in triplicate.\n(§5) The apparent permeability coefficient (Papp, cm/s) of each compound was calculated according to the following equation (Equation (1)): (1) Papp= dQ/dt×1/AC0 where dQ/dt is the compound permeation rate (nmol/s), A denotes the membrane surface area, and C0 is the initial concentration on the donor side (µM). The efflux ratio was calculated according to the following equation (Equation (2)): (2) Efflux ratio= Papp BA(mean)/Papp AB(mean) where Papp BA (mean) and Papp AB (mean) are the average apparent permeability coefficients of each compound from side B to side A, and from side A to side B, respectively."}, "[2]": {"conditions": "rats, i.p., mixture of MG and PGG 20 mg/kg each, cited from earlier work"}, "Caco-2 monolayer": {"system": "Caco-2 monolayer", "assay": "Caco-2 transepithelial transport experiment", "assay_type": "in vitro ADME, human", "conditions": "20 µM", "protocol": "as §4, §5"}, "[3]": {"conditions": "cited from earlier work"}, "[4]": {"conditions": "human, in vivo, po; cited from earlier work"}},
  "note": "Values joined by “and” are separate entries in the source; they are usually repeats but may differ in a detail not shown here. Equal entries are not always repeated. Where two headings read alike, the source gives them in different places.",
  "data": [
    {"smiles": "COC(=O)c1cc(O)c(O)c(O)c1", "note": "[MG, methyl gallate]", "values": [
      {"measurement": "recovery at 24 h, 100 µg/mL", "setting": "in vitro; rat fecal lysate", "result": 54.7, "unit": "%"},
      {"measurement": "recovery at 24 h, 10 µM", "setting": "in vitro; rat fecal lysate, mixture of GA, MG and PGG 10 µM each, read-out: recovery after incubation with the fecal lysates", "result": 55.4, "unit": "%"},
      {"measurement": "recovery after incubation with inactive fecal lysates and HBSS at pH 6", "setting": "rat fecal lysates", "result": "increased recoveries"},
      {"measurement": "recovery after incubation with fecal lysates", "setting": "rat fecal lysates; rat fecal lysates", "result": "increased recoveries"},
      {"measurement": "stability in inactive rat fecal lysates or HBSS at pH 6", "setting": "rat fecal lysates; individual compound 10 µM", "result": "stable"},
      {"measurement": "time to complete degradation in fecal lysates", "setting": "rat fecal lysates; individual compound 10 µM, rat fecal lysates", "result": "≤ 8", "unit": "h"},
      {"measurement": "stability in inactive fecal lysates", "setting": "rat fecal lysates; mixture of GA, MG and PGG 10 µM each, PGG after 8 h", "result": "good stabilities"},
      {"measurement": "Papp A→B at 240 min", "setting": "[1]; Caco-2, pH 6, as principle in MSKE 0.25 mg/mL, HBSS pH 6, read-out: Papp A to B", "result": "17.6 ± 1.54", "unit": "×10⁻⁶ cm/s"},
      {"measurement": "Papp B→A at 240 min", "setting": "[1]; Caco-2, pH 6, as principle in MSKE 0.25 mg/mL, HBSS pH 6, read-out: Papp B to A", "result": "11.3 ± 0.31", "unit": "×10⁻⁶ cm/s"},
      {"measurement": "efflux ratio at 240 min", "setting": "[1]; Caco-2, pH 6, as principle in MSKE 0.25 mg/mL, Papp BA/Papp AB, read-out: Efflux Ratios", "result": 0.66},
      {"measurement": "efflux ratio at 240 min, 20 µM", "setting": "[1]; Caco-2, pH 6, in mixture 20 μM, Papp BA/Papp AB, read-out: Efflux Ratios", "result": 0.51},
      {"measurement": "Papp A→B at 240 min, 20 µM", "setting": "[1]; Caco-2, pH 6, in mixture of GA, MG, PGG 20 μM, HBSS pH 6", "result": "12.5 ± 0.63", "unit": "×10⁻⁶ cm/s"},
      {"measurement": "Papp B→A at 240 min, 20 µM", "setting": "[1]; Caco-2, pH 6, in mixture of GA, MG, PGG 20 μM, HBSS pH 6, read-out: Papp B to A", "result": "6.33 ± 0.57", "unit": "×10⁻⁶ cm/s"},
      {"measurement": "Papp A→B at 240 min, 20 µM", "setting": "[1]; Caco-2, pH 6, individual compound 20 μM, HBSS pH 6", "result": "13.6 ± 0.4", "unit": "×10⁻⁶ cm/s"},
      {"measurement": "Papp B→A at 240 min, 20 µM", "setting": "[1]; Caco-2, pH 6, individual compound 20 μM, HBSS pH 6, read-out: Papp B to A", "result": "7.02 ± 1.11", "unit": "×10⁻⁶ cm/s"},
      {"measurement": "efflux ratio at 240 min, 20 µM", "setting": "[1]; Caco-2, pH 6, individual compound 20 μM, Papp BA/Papp AB, read-out: Efflux Ratios", "result": 0.52},
      {"measurement": "Cmax", "setting": "[2]; blood", "result": "35 µM and 34.7 µM"},
      {"measurement": "Tmax", "setting": "[2]; blood", "result": "0.85 ± 0.70", "unit": "h"},
      {"measurement": "CL", "setting": "[2]", "result": "2665.2 ± 1268", "unit": "mL/min/kg"},
      {"measurement": "Ke", "setting": "[2]", "result": "0.056 ± 0.032", "unit": "h⁻¹"},
      {"measurement": "MRTlast", "setting": "[2]", "result": "8.71 ± 2.53", "unit": "h"},
      {"measurement": "Vd", "setting": "[2]", "result": "530.95 ± 247.54", "unit": "L/kg"},
      {"measurement": "t1/2", "setting": "[2]", "result": "17.50 ± 12.25", "unit": "h"}
    ]},
    {"smiles": "O=C(O)c1cc(O)c(O)c(O)c1", "note": "[GA, Gallic acid]", "values": [
      {"measurement": "recovery at 24 h, 100 µg/mL", "setting": "in vitro", "result": 167, "unit": "%"},
      {"measurement": "maximum GA concentration increase after hydrolysis of PGG", "setting": "rat fecal lysates; PGG 10 µM incubated with rat fecal lysates", "result": "approximately 4 fold"},
      {"measurement": "recovery after incubation with inactive fecal lysates and HBSS at pH 6", "setting": "rat fecal lysates", "result": "increased recoveries"},
      {"measurement": "recovery after incubation with fecal lysates", "setting": "rat fecal lysates; rat fecal lysates", "result": "increased recoveries"},
      {"measurement": "stability in inactive rat fecal lysates or HBSS at pH 6", "setting": "rat fecal lysates; individual compound 10 µM", "result": "not significantly different from the initial concentrations"},
      {"measurement": "Papp A→B at 240 min", "setting": "[1]; Caco-2, pH 6, Papp A to B", "result": "1.46 ± 0.21", "unit": "×10⁻⁶ cm/s"},
      {"measurement": "Papp B→A at 240 min", "setting": "[1]; Caco-2, pH 6, Papp B to A", "result": "8.04 ± 0.43", "unit": "×10⁻⁶ cm/s"},
      {"measurement": "Papp B→A at 240 min, 20 µM", "setting": "[1]; Caco-2, pH 6, Papp B to A", "result": "1.02 ± 0.29", "unit": "×10⁻⁶ cm/s"},
      {"measurement": "accumulation in the cells (cellular uptake)", "setting": "Caco-2 monolayer; after individual bi-directional transport across Caco-2 monolayer", "result": "could not be detected"},
      {"measurement": "Papp B to A", "setting": "Caco-2 monolayer; human, Caco-2, 240 min, pH 6", "result": "1.87 ± 0.47 ×10^−6 cm/s"},
      {"measurement": "Cmax", "setting": "[3]; rat, in vivo, po, 100 umol/kg", "result": 0.71, "unit": "µM"},
      {"measurement": "elimination t1/2", "setting": "[3]; rat, in vivo, po, 100 umol/kg", "result": 0.4, "unit": "h"},
      {"measurement": "Tmax", "setting": "[3]; rats, p.o., GA as pure compound or component of rhubarb and grape seed extract, plasma", "result": "approximately 60 min"},
      {"measurement": "t1/2", "setting": "[4]", "result": "~1", "unit": "h"}
    ]}
  ]
}
